{
  "source": "patent US20130023504A1",
  "about": "“Modulation of Prostaglandin/Cyclooxygenase Metabolic Pathways” (HUNTER-FLEMING LIMITED, priority 2006, published 2013)",
  "type_in_all_cases": "cell-based",
  "key": {"PC-12 cells": {"tested_on": "PC-12 cells", "assay": "Ischaemia (oxygen-glucose deprivation)-induced cell death in NGF-differentiated PC-12 cells, Trypan Blue exclusion", "conditions": "for decrease in cell death: vs. ischemia alone", "method": "PC-12 cells were maintained on flasks coated with Collagen typel in PC-12 media with the following composition; RPMI 1640 without L-glutamine with 2 mM L-glutamine, 10 mM HEPES, 1 mM Sodium Pyruvate, additional glucose to give a final concentration of 4.5 g/L (RPMI normally has 2 g/L), 10% heat inactivated horse serum, 5% foetal calf serum and 50 units of penicillin/streptomycin. Media was changed every 2 days.\nConfluent cultures of PC-12 cells were differentiated by culturing for 7 days in PC-12 medium without serum but with 50 ng/mlNGF (PC-12 NGF media). The cells were harvested, washed, counted and 1×10^5 PC-12 cells/well were plated overnight in a micro titre plate in glucose free PC-12 NGF medium. The medium was then changed to glucose-free PC-12 NGF medium containing the compounds to be tested and the plates left under normoxic conditions for 30 minutes.\nDuring this stage, the media and test substances for the anoxic exposure were placed in a chamber and de-oxygenated with 95% N2/5% CO2. The media in the plates was changed with the de-oxygenated media and the plates then placed in an anaerobic chamber gassed with 95% N2 5% CO2 for 10 minutes before being sealed and incubated at 37° C. overnight (18 hours). For normoxia controls, the cells were treated identically to ischemic treatments except that all incubations were in 5% CO2/95% air.\nViability was determined using Trypan Blue exclusion."}, "rat sensory neurones [1]": {"tested_on": "rat sensory neurones", "assay": "Cisplatin-induced neuronal cell death, number of cell bodies per field in dorsal root ganglia sensory neurones (anti MAP-2)", "conditions": "10 ng/ml, cisplatin 3 μg/ml", "method": "(§1) Primary cultures of dissociated dorsal root ganglia sensory neurones were incubated with 3 μg/ml cisplatin, with and without 7β-OH EPIA for 48 hours and 72 hours and the following parameters were evaluated:\nneurone cell bodies stained with an anti MAP 2 antibody (microtubule associated protein 2)\n(§2) Rat sensory neurones were prepared according to the method described by Hall et al 1997 [Hall et al. (J. Neurosci. 1997 Apr. 15; 17(8); 2775-84]. Briefly, a female rat (15 days gestation) was killed by cervical dislocation (Rats Wistar; Janvier, Le Genest-St-lsle, France) and the foetuses removed from the uterus. Their spinal cords with the dorsal root ganglia (DRG) were removed and placed in ice-cold medium of Leibovitz (L15, Fisher 11415-049) containing Penicillin 50 UI/ml-Streptomycin 50 μg/ml (PS, 1%) and bovine serum albuminutes (BSA 1%, Sigma A6003). The DRG were recovered and dissociated by trypsinisation for 20 minutes at 37° C. (trypsin EDTA 10×, 10%, Fisher 15400054) diluted in PBS without calcium and magnesium (Fisher 2007-03). The reaction was stopped by addition of Dulbecco modified Eagle medium (DMEM, Fisher 21969-035) containing DNase I grade II (0.1 mg/ml Roche diagnostic 104159) and foetal bovine serum (FBS 10%, Fisher 10270-098). The cell suspension was triturated with a 10 ml pipette and centrifuged at 350×g for 10 minutes at room temperature. The pellet of dissociated cells was then resuspended in defined culture medium.\n(§3) Viable cells were counted in a Neubauer cytometer using the trypan blue exclusion test (Sigma) and seeded at a density of 30 000 cells/well in 96 well-plates (Nunc). Wells were pre-coated with poly-L-lysine (10 μg/ml, Sigma P2636) in ultra pure sterile water (Merck Eurolab 60759.01).\n(§4) Cells were allowed to adhere for 2 h and maintained in a humidified incubator at 37° C. in 5% CO2/95% air atmosphere.\n(§5) After 5 days of culture, the culture medium was changed into a defined culture medium following the different conditions described below:\n(§6) Test compound 7β-OH EPIA (1 nM, 10 nM and 100 nM)+cisplatin (3 μg/ml)\n(§7) Reference compound NGF (10 ng/ml)+cisplatin (3 μg/ml)\n(§8) Six wells per condition were carried out to assess neuronal survival. After 48 hours and 72 hours of incubation, the neuronal cells were fixed for 5 minutes in an ethanol/acetic acid solution (95%/5%) at −20° C. and rinsed 3 times in PBS.\n(§9) Cell bodies of sensory neurones were labelled by monoclonal anti MAP-2 antibody (Sigma M4403) and the neurite of sensory neurones were labelled by monoclonal β-Tubulin antibody (Sigma T8660). These antibodies were diluted at 1:400 in incubation solution (PBS with 5% of FCS and 0.1% of saponin, Sigma S-7900). These antibodies specifically label neurone cell bodies and neuritis, respectively.\n(§10) After 2 hours of incubation, the cells were washed in PBS and incubated with Alexa Fluor 488 goat anti mouse IgG (Molecular Probes A11001) diluted at 1:300 in incubation solution to reveal the MAP-2 and the β-Tubulin antibodies. Cell nuclei were stained with a fluorescent marker (Hoechst staining solution, SIGMA H6024, 1 μg/ml in incubation solution during 1 hour).\n(§11) For each condition, 2 pictures per well (12 pictures per condition) were taken using In Cell Analyzer 1000 (Amersham Biosciences) controlled by the computer software In Cell Analyzer 1000 3.2. For the MAP-2 labelling, the magnification was ×10, for the β-Tubulin labelling, the magnification was ×20. For each labelling, all the images were taken in the same conditions.\n(§12) Analysis of the number of cell bodies labelled with anti-MAP-2 antibodies, and total length of neurites labelled with anti β-Tubulin antibodies, were carried out using In Cell Analyzer 1000 3.2.Workstation software. The results were expressed in percentage compared to the vehicle. The comparisons of each group were carried out using the unpaired T test."}, "rat sensory neurones [2]": {"tested_on": "rat sensory neurones", "assay": "Neurite growth of sensory neurones in primary culture (anti β-Tubulin, In Cell Analyzer)", "method": "Rat sensory neurones were prepared according to the method described by Hall et al. 1997 (Hall A K, Ai X, Hickman G E, MacPhedran S E, Nduaguba C O, Robertson C P. The generation of neuronal heterogeneity in a rat sensory ganglion. J. Neurosci. 1997 Apr. 15; 17(8):2775-84). Briefly, female rats (15 days gestation) were killed by cervical dislocation (Rats Wistar; Janvier, Le Genest-St-Isle, France) and the foetuses removed from the uterus. Their spinal cords with the dorsal root ganglia (DRG) were removed and placed in ice-cold medium of Leibovitz (L15, Fisher 11415-049) containing Penicillin 50 Ul/ml-Streptomycin 50 pg/ml (PS, 1%) and bovine serum albuminutes (BSA 1%, Sigma A6003). The DRG were recovered and dissociated by trypsinisation for 20 minutes at 37° C. (trypsin EDTA 10×, 10%, Fisher 15400054) diluted in PBS without calcium and magnesium (Fisher 2007-03). The reaction was stopped by addition of Dulbecco modified Eagle medium (DMEM, Fisher 21969-035) containing DNase I grade II (0.1 mg/ml Roche diagnostic 104159) and foetal bovine serum (FBS 10%, Fisher 10270-098). The cell suspension was triturated with a 10 ml pipette and centrifuged at 350×g for 10 minutes at room temperature. The pellet of dissociated cells was then resuspended in defined culture medium.\nViable cells were counted in a Neubauer cytometer using the trypan blue exclusion test (Sigma) and seeded at a density of 25 000 cells/well in 96 well-plates (Nunc). Wells were pre-coated with poly-L-lysine (10 μg/ml, Sigma P2636) in ultra pure sterile water (Merck Eurolab 60759.01).\nCells were allowed to adhere for 2 hours and maintained in a humidified incubator at 37° C. in 5% CO2/95% air atmosphere.\nThe culture medium was changed into a defined culture medium after a 12 hours incubation period following the conditions described below:\nNGF 50 ng/ml and 10 ng/ml (in 0.1% DMSO)\nAfter 6 hours, 12 hours and 24 hours of incubation with 7β-OH EPIA, cells were fixed for 5 minutes in an ethanol/acetic acid solution (95%/5%) at −20° C. and rinsed 3 times in PBS.\nMotor neurones and sensory neurones were labelled by monoclonal anti β-Tubulin antibody (Sigma T8660) diluted at 1:400 in incubation solution (PBS with 5% of FCS and 0.1% of saponin, Sigma S-7900). This antibody specifically labels neurone cell bodies and neurites.\nAfter 2 hours of incubation, the cells were washed in PBS and incubated with Alexa Fluor 488 goat anti mouse IgG (Molecular Probes A11001) diluted at 1:300 in incubation solution to reveal the 8-Tubulin III antibodies.\nAnalysis of the total length of neurones labelled with anti β-Tubulin antibodies (neurones) were carried out using In Cell Analyzer 1000 3.2.Workstation software.\nThe results were expressed in percentage compared to the vehicle. Comparison of groups was carried out using the unpaired T test."}, "rat sensory neurones [3]": {"tested_on": "rat sensory neurones", "assay": "Cisplatin-induced loss of neurite density in primary dorsal root ganglia sensory neurones (anti β-Tubulin)", "conditions": "10 ng/ml, cisplatin 3 μg/ml", "method": "as §1\nneurite network density stained with an anti 8-Tubulin antibody\nas §2, §3, §4, §5, §6, §7, §8, §9, §10, §11, §12"}},
  "note": "Values joined by “and” are separate entries in the source; they are usually repeats but may differ in a detail not shown here. Equal entries are not always repeated.",
  "data": [
    {"compound": "COc1ccc2c(c1)c(CC(=O)O)c(C)n2C(=O)c1ccc(Cl)cc1", "note": "[Indomethacin]", "values": [
      {"measurement": "antagonism of the protective effect of 7β-OH-EPIA", "setting": "PC-12 cells; 10 μM indomethacin with 1 μM and 10 μM 7β-OH-EPIA", "result": "fully antagonised"},
      {"measurement": "decrease in cell death", "setting": "PC-12 cells; 10 μM", "result": "no direct effect"},
      {"measurement": "decrease in cell death", "setting": "PC-12 cells; 100 μM", "result": 29, "unit": "%"}
    ]},
    {"compound": "C[C@]12N[C@H](Cc3ccccc31)c1ccccc12", "note": "[MK801]", "values": [
      {"measurement": "decrease in cell death", "setting": "PC-12 cells; 10 μM", "result": "62% and 42%"}
    ]},
    {"compound": "NGF: Nerve Growth Factor, a specific growth factor for sensory neurones; reference compound", "values": [
      {"measurement": "% Control without cisplatin (cell bodies)", "setting": "rat sensory neurones [1]; 48 hours", "result": 96, "unit": "%"},
      {"measurement": "number of cell bodies per field, Average", "setting": "rat sensory neurones [1]; 48 hours", "result": 58.33},
      {"measurement": "% Control without cisplatin (cell bodies)", "setting": "rat sensory neurones [1]; 72 hours", "result": 1.2, "unit": "%"},
      {"measurement": "number of cell bodies per field, Average", "setting": "rat sensory neurones [1]; 72 hours", "result": 54.92},
      {"measurement": "Neurites length per field, % Vehicle", "setting": "rat sensory neurones [2]; 10 ng/ml, 6 hours", "result": 191, "unit": "%"},
      {"measurement": "Neurites length per field, Mean", "setting": "rat sensory neurones [2]; 10 ng/ml, 6 hours", "result": 195.2, "unit": "μm"},
      {"measurement": "Neurites length per field, % Vehicle", "setting": "rat sensory neurones [2]; 10 ng/ml, 12 hours", "result": 128, "unit": "%"},
      {"measurement": "Neurites length per field, Mean", "setting": "rat sensory neurones [2]; 10 ng/ml, 12 hours", "result": 381.3, "unit": "μm"},
      {"measurement": "Neurites length per field, % Vehicle", "setting": "rat sensory neurones [2]; 10 ng/ml, 24 hours", "result": 371, "unit": "%"},
      {"measurement": "Neurites length per field, Mean", "setting": "rat sensory neurones [2]; 10 ng/ml, 24 hours", "result": 819.9, "unit": "μm"},
      {"measurement": "Neurites length per field, % Vehicle", "setting": "rat sensory neurones [2]; 50 ng/ml, 6 hours", "result": 273, "unit": "%"},
      {"measurement": "Neurites length per field, Mean", "setting": "rat sensory neurones [2]; 50 ng/ml, 6 hours", "result": 279.1, "unit": "μm"},
      {"measurement": "Neurites length per field, % Vehicle", "setting": "rat sensory neurones [2]; 50 ng/ml, 12 hours", "result": 216, "unit": "%"},
      {"measurement": "Neurites length per field, Mean", "setting": "rat sensory neurones [2]; 50 ng/ml, 12 hours", "result": 644.3, "unit": "μm"},
      {"measurement": "Neurites length per field, % Vehicle", "setting": "rat sensory neurones [2]; 50 ng/ml, 24 hours", "result": 309, "unit": "%"},
      {"measurement": "Neurites length per field, Mean", "setting": "rat sensory neurones [2]; 50 ng/ml, 24 hours", "result": 682.1, "unit": "μm"},
      {"measurement": "% Control without cisplatin (neurite length)", "setting": "rat sensory neurones [3]; 48 hours", "result": 117, "unit": "%"},
      {"measurement": "Mean neurite length", "setting": "rat sensory neurones [3]; 48 hours", "result": 6362.44, "unit": "μm"},
      {"measurement": "% Control without cisplatin (neurite length)", "setting": "rat sensory neurones [3]; 72 hours", "result": 113, "unit": "%"},
      {"measurement": "Mean neurite length", "setting": "rat sensory neurones [3]; 72 hours", "result": 6000.30, "unit": "μm"}
    ]}
  ]
}
